# Counter-ions that a name gives are not always drawn.
# Assay: Laboratory observation of polymorphic transformation of polymorph IV in pharmaceutical compositions
# Assay type: physicochemical
# Settings: especially in pharmaceutical compositions; more pronounced in humid environments
smiles,measurement,value
"COc1cc2c(cc1OC)CC(=O)N(CCCN(C)C[C@H]1Cc3cc(OC)c(OC)cc31)CC2 [ivabradine hydrochloride polymorph IV, 3-(3-{[((7S)-3,4-dimethoxybicyclo[4.2.0]octa-1,3,5-trien-7-yl)methyl]methylamino}propyl)-7,8-dimethoxy-1,3,4,5-tetrahydro-2H-3-benzazepin-2-one]",Polymorphic stability over time,transforms over time into the more stable polymorph β

# — US20170014422A1 (SYNTHON B.V., priority 2014, published 2017)
